Measurements reported in ChEMBL document CHEMBL4219272, “Synthesis and biological evaluation of curcumin derivatives modified with α-amino boronic acid as proteasome inhibitors” (Bioorg Med Chem Lett, 2018).

Experiments:
[1] = Aqueous solubility of the compound; type: physicochemical; conditions: buffer
HCT-116 [2] = assay: Antiproliferative activity against human HCT116 cells after 72 hrs by MTT assay; type: functional, cell-based; conditions: HCT-116, 72 h
A549 = assay: Antiproliferative activity against human A549 cells after 72 hrs by MTT assay; type: functional, cell-based; conditions: A549, 72 h
MDA-MB-231 = assay: Antiproliferative activity against human MDA-MB-231 cells after 72 hrs by MTT assay; type: functional, cell-based; conditions: MDA-MB-231, 72 h
[3] = Antiproliferative activity against human 95-D cells after 72 hrs by MTT assay; type: functional, cell-based
[4] = biological target: T1, Proteasome Macropain subunit MB1 (Homo sapiens, UniProt P28074); assay: Inhibition of chymotrypsin-like activity of 20S proteasome in human K562 cells using Suc-LLVYaminoluciferin as substrate after 2 hrs by luminescence assay; type: cell-based
T1 sequence (P28074 whole entry): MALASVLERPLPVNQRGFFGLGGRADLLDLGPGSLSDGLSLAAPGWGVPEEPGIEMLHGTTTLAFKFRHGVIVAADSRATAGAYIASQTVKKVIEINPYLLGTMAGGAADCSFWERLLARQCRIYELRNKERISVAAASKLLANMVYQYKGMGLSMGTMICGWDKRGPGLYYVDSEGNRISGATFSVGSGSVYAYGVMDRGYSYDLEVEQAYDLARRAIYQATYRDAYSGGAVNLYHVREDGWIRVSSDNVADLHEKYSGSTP

[5] = biological target: T1, Proteasome Macropain subunit MB1; assay: Inhibition of chymotrypsin-like activity of 20S proteasome in human LNCAP cell extract using Suc-LLVYaminoluciferin as substrate after 2 hrs
[6] = biological target: T1, Proteasome Macropain subunit MB1; assay: Inhibition of chymotrypsin-like activity of 20S proteasome in human PC3 cell extract using Suc-LLVYaminoluciferin as substrate after 2 hrs
LNCaP = assay: Growth inhibition of human LNCAP cells at 5 to 10 uM after 48 hrs by MTT assay relative to control; type: functional
HCT-116 [7] = assay: Antiproliferative activity against human HCT116 cells after 36 hrs by XTT assay; type: functional, cell-based; conditions: HCT-116, 36 h

Row | Structure (SMILES) | IC50 (HCT-116 [2]) | further results
1 | O=C1/C(=C/c2ccc([N+](=O)[O-])cc2)CNC/C1=C\c1ccc([N+](=O)[O-])cc1 |  | solubility [1]: Insoluble
2 | O=C1/C(=C/c2ccc(F)cc2)CNC/C1=C\c1ccc(F)cc1 |  | solubility [1]: Soluble
3 | CC1(C)OB([C@H](CCc2ccccc2)NC(=O)N2C/C(=C\c3ccc(F)cc3)C(=O)/C(=C/c3ccc(F)cc3)C2)OC1(C)C | 1.04 µM | 
4 | CC(C)C[C@H](NC(=O)N1CCN(C(=O)N2C/C(=C\c3ccc(F)cc3)C(=O)/C(=C/c3ccc(F)cc3)C2)CC1)B1OC(C)(C)C(C)(C)O1 | 1.63 µM | 
5 | CC1(C)OB([C@@H](NC(=O)N2C/C(=C\c3ccc(F)cc3)C(=O)/C(=C/c3ccc(F)cc3)C2)C2CCCCC2)OC1(C)C | 0.903 µM | 
6 | CC(C)[C@H](NC(=O)N1C/C(=C\c2ccc(F)cc2)C(=O)/C(=C/c2ccc(F)cc2)C1)B1OC(C)(C)C(C)(C)O1 | 0.908 µM | 
7 | COc1cc(/C=C/C(=O)CC(=O)/C=C/c2ccc(OC(=O)[C@@H](N)C(C)C)c(OC)c2)ccc1OC(=O)[C@@H](N)C(C)C |  | IC50 [5]: 10 µM; IC50 [6]: 10 µM; IC50 [4]: > 5 µM; growth inhibition (GI) (LNCaP): 38 - 71%
8 | COc1cc(/C=C/C(=O)CC(=O)/C=C/c2ccc(O)c(OC)c2)ccc1O [CURCUMIN] | 10.9 µM | IC50 (A549): > 10 µM; IC50 (MDA-MB-231): > 10 µM; IC50 [3]: > 10 µM; IC50 (HCT-116 [7]): 50 µM

Now from value to compound, other results behind:

Row | IC50 (HCT-116 [2]) | Structure (SMILES) | further results
9 | 0.785 µM | CCC[C@H](NC(=O)N1C/C(=C\c2ccc(F)cc2)C(=O)/C(=C/c2ccc(F)cc2)C1)B1OC(C)(C)C(C)(C)O1 | 
10 | 0.824 to 0.854 µM | CC(C)C[C@H](NC(=O)N1C/C(=C\c2ccc(F)cc2)C(=O)/C(=C/c2ccc(F)cc2)C1)B1OC(C)(C)C(C)(C)O1 | IC50 (A549): 5.05 µM; IC50 (MDA-MB-231): 3.31 µM; IC50 [3]: 1.12 µM
11 | 0.534 µM | CC(C)C[C@H](NC(=O)[C@@H](NC(=O)N1C/C(=C\c2ccc(F)cc2)C(=O)/C(=C/c2ccc(F)cc2)C1)C(C)C)B1OC(C)(C)C(C)(C)O1 | 
12 | 0.201 µM | CC(C)C[C@H](NC(=O)[C@H](Cc1ccccc1)NC(=O)N1C/C(=C\c2ccc(F)cc2)C(=O)/C(=C/c2ccc(F)cc2)C1)B1OC(C)(C)C(C)(C)O1 | 
13 | 0.172 µM | CC(C)C[C@H](NC(=O)[C@H](Cc1ccc2ccccc2c1)NC(=O)N1C/C(=C\c2ccc(F)cc2)C(=O)/C(=C/c2ccc(F)cc2)C1)B1OC(C)(C)C(C)(C)O1 | 
14 | 0.639 µM | CC(C)C[C@H](NC(=O)[C@H](CC(C)C)NC(=O)N1C/C(=C\c2ccc(F)cc2)C(=O)/C(=C/c2ccc(F)cc2)C1)B1OC(C)(C)C(C)(C)O1 | 
15 | 0.375 µM | CC(C)C[C@H](NC(=O)CNC(=O)N1C/C(=C\c2ccc(F)cc2)C(=O)/C(=C/c2ccc(F)cc2)C1)B1OC(C)(C)C(C)(C)O1 | 
16 | 0.599 µM | CC1(C)OB([C@H](Cc2ccccc2)NC(=O)N2C/C(=C\c3ccc(F)cc3)C(=O)/C(=C/c3ccc(F)cc3)C2)OC1(C)C | 
17 | 0.828 µM | CC(C)(C)[C@H](NC(=O)N1C/C(=C\c2ccc(F)cc2)C(=O)/C(=C/c2ccc(F)cc2)C1)B1OC(C)(C)C(C)(C)O1 | 
18 | 0.876 µM | CC[C@H](NC(=O)N1C/C(=C\c2ccc(F)cc2)C(=O)/C(=C/c2ccc(F)cc2)C1)B1OC(C)(C)C(C)(C)O1 | 
19 | 0.203 µM | CC(C)C[C@H](NC(=O)[C@H](Cc1ccccc1)NC(=O)N1C/C(=C\c2ccc(F)cc2)C(=O)/C(=C/c2ccc(F)cc2)C1)B(O)O | IC50 [4]: 0.835 µM
